Patent US12138251B2, “Fibrosis drug” (SCIENCE FARM LTD., priority 2019, dated 2024)

Assays:
[1] = tested on: InMyoFib human colon myofibroblast cell line; test: Immunoblot study of HPH-15 on TGF-β1-stimulated InMyoFib cells; type: cell-based; settings: InMyoFib cells stimulated with TGF-β1 (5 ng/ml) and HPH-15 for 24 hours
From the text: An InMyoFib human colon myofibroblast cell line, which reproduces an inflammatory bowel disease, was used. The culture condition was as follows: culture medium SmBM with 5% fetal bovine serum (FBS), antibiotics, and growth factors (insulin, hFGF-B, hEGF, FBS, and gentamicin/amphotericin-B). Cells at 10 to 17 passages were used.

Human dermal fibroblasts = test: Immunoblot study of HPH-15 on TGF-β-treated human dermal fibroblasts; type: cell-based; settings: after 2 ng/mL TGF-β for 24 hours, FIG. 3
From the text: Collagen was observed by immunoblot.

[2] = tested on: bleomycin (BLM)-induced scleroderma mouse model
Description: An eight-to-ten-week-old female C57BL/6 mouse was injected subcutaneously with 150 μl of bleomycin (dissolved in physiological saline at 1 mg/ml) or with 150 μl of physiological saline as a control on the shaved back once a day for 6 weeks on alternate days. […] For each group, the body weights of the mice before the start of the test and at the time of the tissue collection (6 weeks later) were measured and compared. A Student's t-test was used for statistics. Four mice are used for each group. […] Mouse skin tissue for HE staining was collected with a scalpel and a knife. The skin tissue was fixed with 4% paraformaldehyde, and HE-stained slides were prepared from the paraffin block. A representative stained image of each group was shown (FIG. 4b). • c. For the dermal thickness, the distance between the epidermis-dermis boundary and the subcutaneous fatty tissue was measured using HE staining. For statistics, a parametric multiple comparison test by the Tukey-Kramer method was performed. Four mice were used for each group. […] In order to compare the amounts of collagen in the skin tissues, the skins were collected using a 4 mm Derma punch centering on the bleomycin-injected site on the back skin of the mice. For the measurement of the amount of collagen, Sircol Soluble Collagen Assay Kit (#S1000, Funakoshi Co., Ltd.) was used. The amount (μg) of collagen in the skin tissue was graphed using four mice for each group. For statistics, the Tukey-Kramer method was used.

CC(C)(C)SCCNC(=S)c1cccc(C(=S)NCCSC(C)(C)C)n1 [HPH-15]
amount of phosphorylated Smad (P-Smad) ([1]; FIG. 1): reduced by the HPH-15 treatment in a dose-dependent manner | amount of collagen I ([1]; FIG. 2): reduced by the HPH-15 treatment in a dose-dependent manner | expression of collagen (Human dermal fibroblasts; 5 μM HPH-15, 48 hours): suppressed | expression of collagen (Human dermal fibroblasts; 10 μM HPH-15, 48 hours): suppressed | dermal thickness increased by bleomycin ([2]; HPH-15 dose of 50 mg/kg/day or more, oral, 4 weeks, HE staining, FIGS. 4b, c): significantly reduced | systemic condition of the mice ([2]; each dose 50, 100, 200, 300 mg/kg/day oral for 4 weeks, 6 weeks after the start of the test): kept well | body weight at skin collection compared with before the start of the test ([2]; each dose 50, 100, 200, 300 mg/kg/day oral for 4 weeks, 6 weeks after the start of the test, FIG. 4a): no significant decrease in body weight
